For one data set, the target named is T1, BCRP (Homo sapiens, UniProt Q9UNQ0).
T1 sequence (Q9UNQ0 1-655): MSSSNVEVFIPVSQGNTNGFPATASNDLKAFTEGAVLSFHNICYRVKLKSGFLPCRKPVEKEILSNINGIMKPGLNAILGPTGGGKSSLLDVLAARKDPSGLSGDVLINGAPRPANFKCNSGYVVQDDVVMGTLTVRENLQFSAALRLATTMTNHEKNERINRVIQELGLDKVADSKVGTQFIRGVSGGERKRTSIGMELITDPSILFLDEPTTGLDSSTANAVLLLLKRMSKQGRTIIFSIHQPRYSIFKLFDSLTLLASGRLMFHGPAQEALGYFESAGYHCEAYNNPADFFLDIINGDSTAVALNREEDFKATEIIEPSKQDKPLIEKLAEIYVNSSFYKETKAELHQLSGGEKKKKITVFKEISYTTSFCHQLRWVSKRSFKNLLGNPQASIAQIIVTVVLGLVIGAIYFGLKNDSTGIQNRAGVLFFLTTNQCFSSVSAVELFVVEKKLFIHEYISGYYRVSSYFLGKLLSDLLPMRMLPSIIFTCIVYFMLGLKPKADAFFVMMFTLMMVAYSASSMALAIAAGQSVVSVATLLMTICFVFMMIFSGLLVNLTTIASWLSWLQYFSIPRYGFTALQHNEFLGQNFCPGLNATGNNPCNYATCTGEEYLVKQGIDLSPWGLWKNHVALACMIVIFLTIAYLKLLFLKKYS
As to the kind of experiment: biochemical.

A further data set concerns the target human MATE2 (Homo sapiens, UniProt Q86VL8). Nature of the data set: cell-based.
A further data set concerns the target T2, human MATE1 (Homo sapiens, UniProt Q96FL8).
T2 sequence (Q96FL8 1-570): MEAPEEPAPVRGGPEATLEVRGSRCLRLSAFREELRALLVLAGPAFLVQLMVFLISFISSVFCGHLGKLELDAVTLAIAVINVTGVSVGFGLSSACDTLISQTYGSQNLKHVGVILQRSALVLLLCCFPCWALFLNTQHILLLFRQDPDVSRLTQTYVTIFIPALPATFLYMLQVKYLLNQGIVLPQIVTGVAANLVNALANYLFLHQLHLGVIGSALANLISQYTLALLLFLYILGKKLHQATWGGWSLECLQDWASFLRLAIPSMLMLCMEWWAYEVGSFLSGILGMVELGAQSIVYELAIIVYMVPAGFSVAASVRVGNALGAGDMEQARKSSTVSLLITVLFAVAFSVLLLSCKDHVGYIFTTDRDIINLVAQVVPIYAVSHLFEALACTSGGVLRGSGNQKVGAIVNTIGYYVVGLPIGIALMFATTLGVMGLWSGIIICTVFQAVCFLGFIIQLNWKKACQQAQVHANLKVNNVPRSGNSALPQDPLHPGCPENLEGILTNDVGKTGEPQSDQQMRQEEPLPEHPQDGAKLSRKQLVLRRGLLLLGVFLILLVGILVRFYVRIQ
As to the kind of experiment: cell-based.

The target in another data set is T3, human OAT1 (Homo sapiens, UniProt Q4U2R8).
T3 sequence (Q4U2R8 1-563): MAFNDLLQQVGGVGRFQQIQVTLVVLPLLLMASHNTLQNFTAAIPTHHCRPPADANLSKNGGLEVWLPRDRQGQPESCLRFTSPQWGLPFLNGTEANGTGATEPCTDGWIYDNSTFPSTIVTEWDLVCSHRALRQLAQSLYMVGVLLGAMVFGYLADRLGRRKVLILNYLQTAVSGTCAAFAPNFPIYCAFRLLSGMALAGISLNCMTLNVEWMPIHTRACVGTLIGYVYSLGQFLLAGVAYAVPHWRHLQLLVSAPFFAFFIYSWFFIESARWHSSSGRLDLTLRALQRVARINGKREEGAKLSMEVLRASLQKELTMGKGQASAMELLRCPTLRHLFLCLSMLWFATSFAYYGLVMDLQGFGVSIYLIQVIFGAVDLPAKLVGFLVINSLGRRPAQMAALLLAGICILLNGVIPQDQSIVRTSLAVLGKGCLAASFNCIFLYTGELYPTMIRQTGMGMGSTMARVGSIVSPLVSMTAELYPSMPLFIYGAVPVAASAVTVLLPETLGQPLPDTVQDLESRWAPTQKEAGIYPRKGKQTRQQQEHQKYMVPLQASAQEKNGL
As to the kind of experiment: cell-based.

The next data set concerns the target P-gp (Homo sapiens, UniProt P08183). As to the kind of experiment: biochemical.
A further data set has as its target T4, human OAT3 (Homo sapiens, UniProt Q8TCC7).
T4 sequence (Q8TCC7 1-542): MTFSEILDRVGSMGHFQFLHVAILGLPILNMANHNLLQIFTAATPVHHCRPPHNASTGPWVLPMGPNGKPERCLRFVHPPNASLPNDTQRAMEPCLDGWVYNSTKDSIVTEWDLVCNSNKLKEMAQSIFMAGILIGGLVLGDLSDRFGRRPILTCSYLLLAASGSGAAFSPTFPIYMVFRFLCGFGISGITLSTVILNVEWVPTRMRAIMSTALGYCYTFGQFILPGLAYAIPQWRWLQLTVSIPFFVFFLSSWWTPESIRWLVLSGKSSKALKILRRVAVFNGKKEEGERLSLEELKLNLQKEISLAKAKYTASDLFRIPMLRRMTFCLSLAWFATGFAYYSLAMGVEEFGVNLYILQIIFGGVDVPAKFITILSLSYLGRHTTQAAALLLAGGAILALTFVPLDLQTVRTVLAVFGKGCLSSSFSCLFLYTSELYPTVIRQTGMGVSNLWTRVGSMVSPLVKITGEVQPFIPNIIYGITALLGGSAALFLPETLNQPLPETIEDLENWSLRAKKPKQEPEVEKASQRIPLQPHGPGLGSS
As to the kind of experiment: cell-based.

The next data set deals with T5, human OCT1 (Homo sapiens, UniProt O15245).
T5 sequence (O15245 1-554): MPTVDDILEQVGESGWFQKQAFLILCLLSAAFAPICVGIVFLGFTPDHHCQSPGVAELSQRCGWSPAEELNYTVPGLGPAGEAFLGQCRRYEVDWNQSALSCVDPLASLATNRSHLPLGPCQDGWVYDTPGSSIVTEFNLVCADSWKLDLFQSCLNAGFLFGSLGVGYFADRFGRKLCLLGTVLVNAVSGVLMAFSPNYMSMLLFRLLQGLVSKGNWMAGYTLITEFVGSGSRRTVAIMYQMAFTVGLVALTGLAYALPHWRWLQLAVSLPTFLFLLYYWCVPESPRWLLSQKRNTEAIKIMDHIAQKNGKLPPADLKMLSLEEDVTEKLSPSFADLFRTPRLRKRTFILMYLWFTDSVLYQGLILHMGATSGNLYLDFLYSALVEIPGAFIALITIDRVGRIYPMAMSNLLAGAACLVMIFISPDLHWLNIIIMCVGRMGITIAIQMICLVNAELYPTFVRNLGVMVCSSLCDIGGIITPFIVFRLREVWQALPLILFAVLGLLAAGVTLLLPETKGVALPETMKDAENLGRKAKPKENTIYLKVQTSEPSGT
Nature of the data set: cell-based.

The test system of data set [1] is transporters at major organ sites. Nature of the data set: Prediction of transporter-mediated inhibition / DDI potential. Details: species or system human. The settings on record: of 11 transporters; FDA criteria.
Data set [2] relates to triglycerides, LDL cholesterol, and total cholesterol, biomarkers of OCT1 activity. As to the kind of experiment: UCSF EHR analysis: lipid levels in patients with HIV, on vs off drug. The data set is classed as in vivo, human.

By IC50 is commonly meant the concentration needed to halve the response being measured.

Structures are written as SMILES.

P-gp, sequence (P08183 whole entry): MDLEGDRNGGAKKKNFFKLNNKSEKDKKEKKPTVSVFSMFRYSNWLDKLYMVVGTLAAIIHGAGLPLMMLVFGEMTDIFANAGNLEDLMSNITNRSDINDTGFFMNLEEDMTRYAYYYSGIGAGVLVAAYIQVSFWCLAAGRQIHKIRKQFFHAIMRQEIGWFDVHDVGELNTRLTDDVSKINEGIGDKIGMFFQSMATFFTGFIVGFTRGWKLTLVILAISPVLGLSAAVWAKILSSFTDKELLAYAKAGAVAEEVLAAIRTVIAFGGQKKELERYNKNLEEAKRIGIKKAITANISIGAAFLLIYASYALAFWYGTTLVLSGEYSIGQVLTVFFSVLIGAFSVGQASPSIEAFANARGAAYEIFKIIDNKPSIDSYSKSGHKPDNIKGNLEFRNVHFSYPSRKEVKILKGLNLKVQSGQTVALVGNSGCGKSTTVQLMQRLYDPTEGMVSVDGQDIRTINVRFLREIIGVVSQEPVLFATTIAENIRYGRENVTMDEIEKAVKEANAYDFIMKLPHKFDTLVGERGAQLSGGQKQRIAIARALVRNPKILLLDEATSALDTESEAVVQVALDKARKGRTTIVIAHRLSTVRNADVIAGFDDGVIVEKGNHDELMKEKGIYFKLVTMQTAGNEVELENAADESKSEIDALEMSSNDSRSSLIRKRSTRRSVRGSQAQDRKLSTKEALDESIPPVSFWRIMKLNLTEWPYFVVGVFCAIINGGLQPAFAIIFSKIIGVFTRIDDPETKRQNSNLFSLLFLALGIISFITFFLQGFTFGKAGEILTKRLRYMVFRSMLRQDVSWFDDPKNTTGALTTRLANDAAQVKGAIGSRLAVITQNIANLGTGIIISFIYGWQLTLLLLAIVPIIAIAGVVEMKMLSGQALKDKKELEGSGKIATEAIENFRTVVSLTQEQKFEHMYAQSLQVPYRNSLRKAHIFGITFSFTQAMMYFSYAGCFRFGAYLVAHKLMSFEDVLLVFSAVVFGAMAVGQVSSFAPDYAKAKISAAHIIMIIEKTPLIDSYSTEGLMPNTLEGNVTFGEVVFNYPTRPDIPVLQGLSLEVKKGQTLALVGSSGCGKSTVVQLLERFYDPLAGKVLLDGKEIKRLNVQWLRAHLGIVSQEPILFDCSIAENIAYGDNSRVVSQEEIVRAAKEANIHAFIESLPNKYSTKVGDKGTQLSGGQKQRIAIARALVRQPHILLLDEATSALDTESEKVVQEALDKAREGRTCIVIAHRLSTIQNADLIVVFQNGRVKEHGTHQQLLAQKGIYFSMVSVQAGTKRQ
human MATE2, sequence (Q86VL8 1-566 isoform Q86VL8-3): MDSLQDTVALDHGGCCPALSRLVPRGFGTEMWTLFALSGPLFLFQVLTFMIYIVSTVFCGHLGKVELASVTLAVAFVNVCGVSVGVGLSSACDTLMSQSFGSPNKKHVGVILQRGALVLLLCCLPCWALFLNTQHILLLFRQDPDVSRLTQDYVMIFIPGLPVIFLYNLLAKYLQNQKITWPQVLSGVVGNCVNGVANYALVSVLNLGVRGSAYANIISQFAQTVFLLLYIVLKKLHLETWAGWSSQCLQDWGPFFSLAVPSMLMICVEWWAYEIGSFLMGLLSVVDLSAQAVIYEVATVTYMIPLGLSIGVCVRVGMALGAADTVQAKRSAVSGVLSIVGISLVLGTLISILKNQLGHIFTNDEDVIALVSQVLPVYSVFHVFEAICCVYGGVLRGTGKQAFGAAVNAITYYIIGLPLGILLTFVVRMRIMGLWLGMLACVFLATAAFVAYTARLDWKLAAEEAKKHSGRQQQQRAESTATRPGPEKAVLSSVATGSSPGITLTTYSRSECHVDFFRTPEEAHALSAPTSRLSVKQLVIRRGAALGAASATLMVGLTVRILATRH

For `CCS(=O)(=O)N1CC(CC#N)(n2cc(-c3ncnc4[nH]ccc34)cn2)C1` [Baricitinib], the IC50 on BCRP is more than 50 µM; on human MATE2, 6.7 ± 5.6 µM; against human MATE1 it was 36 ± 24 µM; against human OAT1, more than 50 µM; against P-gp, more than 50 µM; against human OAT3 it was 12.7 ± 5 µM. At human OCT1, the half-inhibitory concentration (IC50) stood at 22.9 ± 18 µM.
As to `CN(C)C(=O)COC(=O)Cc1ccc(OC(=O)c2ccc(NC(=N)N)cc2)cc1` [Camostat], the “No. of transporters at major organ sites inhibited at clinical concentrations” value in data set [1] is 1. The IC50 against BCRP was more than 100 µM; against human MATE2 it was 2 ± 1.3 µM; at human OAT1, more than 100 µM; on P-gp, 35 µM; on human OAT3, more than 100 µM; on human OCT1, 20.3 ± 21.3 µM.
As to `CCN(CC)CCCC(C)Nc1ccnc2cc(Cl)ccc12` (stereo not drawn) [Chloroquine], in data set [1], the “No. of transporters at major organ sites inhibited at clinical concentrations” value is 4. Moreover, the IC50 against human MATE2 is 0.7 ± 0.2 µM; at human MATE1, 0.8 ± 0.8 µM; against human OAT1, more than 100 µM; against human OAT3, more than 100 µM; against human OCT1 it was 10.7 ± 10.4 µM.
With `COc1cc2c(c(OC)c1OC)-c1ccc(OC)c(=O)cc1[C@@H](NC(C)=O)CC2` [Colchicine], the IC50 is more than 100 µM against BCRP; more than 100 µM against human MATE2; more than 100 µM on human MATE1; 42 µM against P-gp; more than 100 µM on human OAT3.
Consider `CCCCCCCCc1ccc(CCC(N)(CO)CO)cc1` [Fingolimod], for which the “No. of transporters at major organ sites inhibited at clinical concentrations” value in [1] is given as 0. The concentration for half-maximal inhibition (IC50) on BCRP was more than 100 µM; at human MATE2 it was more than 100 µM; against human MATE1, more than 100 µM; against human OAT1 it was 64 µM; at P-gp, 89 µM; at human OAT3 it was more than 100 µM. The compound also came in with an IC50 against human OCT1 of more than 100 µM.
Regarding `CCN(CCO)CCCC(C)Nc1ccnc2cc(Cl)ccc12` (stereo not drawn) [Hydroxychloroquine], the “No. of transporters at major organ sites inhibited at clinical concentrations” value in data set [1] was 4. The IC50 is more than 100 µM at BCRP; 0.8 ± 0.1 µM against human MATE2; 1.9 ± 0.3 µM against human MATE1; more than 100 µM against human OAT1; 51.8 ± 20.6 µM against P-gp; more than 100 µM at human OAT3. Moreover, at human OCT1, the 50% inhibitory concentration (IC50) stood at 20 ± 15.9 µM.
Take `Cc1cccc(C)c1OCC(=O)N[C@@H](Cc1ccccc1)[C@@H](O)C[C@H](Cc1ccccc1)NC(=O)[C@H](C(C)C)N1CCCNC1=O` [Lopinavir]: the “No. of transporters at major organ sites inhibited at clinical concentrations” value in data set [1] was 5. Further, the IC50 is 25.1 ± 9.6 µM on human MATE2; 22.5 ± 4 µM against human MATE1; more than 100 µM on human OAT1; more than 100 µM against human OAT3; more than 100 µM on human OCT1.
In the case of `CCOC(=O)C1=C[C@@H](OC(CC)CC)[C@H](NC(C)=O)[C@@H](N)C1` [Oseltamivir], the “No. of transporters at major organ sites inhibited at clinical concentrations” value in data set [1] is on record as 1. For the same compound, the IC50 was more than 100 µM at BCRP; more than 100 µM at human MATE2; more than 100 µM against human MATE1; 90 µM against human OAT1; 44 µM on P-gp; more than 100 µM on human OAT3. The compound also registered a concentration for half-maximal inhibition (IC50) at human OCT1 of more than 100 µM.
As for `COc1cc2nc(N3CCN(C(=O)c4ccco4)CC3)nc(N)c2cc1OC` [Prazosin], the IC50 against BCRP is more than 100 µM; against human MATE2 it was 2.4 ± 0.9 µM; at human OAT1, more than 100 µM; against human OCT1, 1.8 ± 2 µM.
As to `NC(=O)c1ncn([C@@H]2O[C@H](CO)[C@@H](O)[C@H]2O)n1` [Ribavirin], the “No. of transporters at major organ sites inhibited at clinical concentrations” value in data set [1] is reported as 2. The IC50 on BCRP is more than 100 µM; at human MATE2, more than 100 µM; against human MATE1, more than 100 µM; against human OAT1 it was 99 µM; against P-gp, 47 µM; against human OAT3, more than 100 µM. At human OCT1, this compound showed an IC50 of more than 100 µM.
With `CC(C)c1nc(CN(C)C(=O)N[C@H](C(=O)N[C@@H](Cc2ccccc2)C[C@H](O)[C@H](Cc2ccccc2)NC(=O)OCc2cncs2)C(C)C)cs1` [Ritonavir], the “LDL cholesterol, Average On drug” value in data set [2] (matched 1:1, n=719 each, off drug 99.5, P 0.0033) is given as 106/99.5 mg/dL. Also, the “Triglyceride, Average On drug” value in data set [2] (matched 1:1, n=782 each, off drug 162, P 7.8E-12) is reported as 252/162 mg/dL. For the same compound, the “Total cholesterol, Average On drug” value in data set [2] (matched 1:1, n=803 each, off drug 168, P 3.1E-13) is 190/168 mg/dL. The “LDL cholesterol, Median On drug” value in data set [2] (matched 1:1, off drug 96) is reported as 101/96 mg/dL. The “Triglyceride, Median On drug” value in [2] (matched 1:1, off drug 124) was 156/124 mg/dL. Also, the “Total cholesterol, Median On drug” value in data set [2] (matched 1:1, off drug 165) was 182/165 mg/dL.
As for `C[C@@H]1CCN(C(=O)CC#N)C[C@@H]1N(C)c1ncnc2[nH]ccc12` [Tofacitinib], the “No. of transporters at major organ sites inhibited at clinical concentrations” value in data set [1] was 1. Moreover, the IC50 against BCRP was more than 100 µM; against human MATE2, 68.5 ± 6.2 µM; against human MATE1 it was 1 ± 0.5 µM; against human OAT1, 89 µM; at P-gp, more than 100 µM; against human OAT3, 51.6 ± 7 µM. For the same compound, it took 41.4 ± 13 µM to reach half-maximal inhibition against human OCT1 (IC50).
